Patent US5212158A, “Derivatives of L-proline, their preparation and their biological uses” (Inorgan SA Recherche & Developpement Pharmaceutiques, CAS, priority 1987, dated 1993)
Residues, ends and D or L forms follow the SMILES beside them. *: point of attachment. PhAc = O=C(Cc1ccccc1)*; Bz = O=C(c1ccccc1)*

Columns and labels:
[1] = tested on: mouse; assay: Test of passive avoidance: amnesia induced by scopolamine; type: in vivo; conditions: for activity in the scopolamine amnesia test: at 2, 8 and 32 mg/kg; for activity in the scopolamine amnesia test / dose at which activity is significant / active dose, scopolamine amnesia test: oral administration; for dose with significant/antagonistic effect on scopolamine amnesia: i.p. route 60 minutes before Assay 1
Protocol: The procedure described by Glick and Zimmerberg in Behavioural Biology, 1972, 7: 245-254 and by Lenegre et al in Pharmacol. Biochem. Behav., 29 (3) 1988 were used.
The mouse is introduced into the illuminated compartment of a two-compartment box. When it crosses into the darker component its paws receive electric shocks of 0.3 mA until it returns into the illuminated compartment (Assay 1).
When the mouse is returned to the box 24 hours later (Assay 2), it avoids going into the darker component. An i.p. injection of scopolamine (1 mg.kg^-1) 30 minutes before Assay 1 reduces the memory of this experience as is reflected in the delay of the reaction of the mouse before it crosses to the darker compartment in Assay 2. […]
Piracetam was used as reference substance.

[2] = tested on: mice of the NMRI strain; assay: Test of passive avoidance: amnesia induced by diazepam; type: in vivo, mouse; conditions: for dose with statistically significant effect / dose reducing diazepam amnesia: 60 minutes before Assay 1, piracetam by the i.p. route
Protocol: A volume of 0.25 ml/20 g of body weight of the compound of Example 1 (suspension in 5% gum arabic) is administered to mice of the NMRI strain or, in the case of the reference substance, an aqueous solution of piracetam or of diazepam (5% suspension in gum arabic) is administered. The control animals receive only injections of the vehicle (suspension of gum arabic). The test is carried out at indicated above for the induction of amnesia by the injection of scopolamine, with exception that this latter is replaced by diazepam. An injection of diazepam by the i.p. route 30 minutes before Assay 1 at a dose of 1 mg.kg^-1 reduces memory in a significant manner as is shown by the diminution of the reaction time in the mouse for crossing to the dark compartment during Assay 2.

[3] = tested on: NMRI mice; assay: Potentiation of the effects of L-dopa; type: in vivo, mouse; conditions: oral 8 and 32 mg/kg one hour before L-dopa 150 mg/kg i.p.
Protocol: A compound of the invention is adiministered orally at doses of 2, 8 and 32 mg/kg to NMRI mice one hour before the intraperitoneal administration of 150 mg/kg of L-dopa.

[4] = tested on: mice of the NMRI strain; assay: Antagonism of sleep induced by barbiturates; type: in vivo, mouse; conditions: oral 2 and 8 mg/kg one hour before barbital 50 mg/kg i.p.; compared with a control group
Protocol: A compound of the invention is administered orally at doses of 2, 8 and 32 mg.kg^-1 to mice of the NMRI strain one hour before the intraperitoneal administration of barbital at a dose of 50 mg/kg.

[5] = tested on: male mice of the NMRI strain; assay: Irwin test; type: in vivo, mouse
Protocol: A volume of 0.25 ml/20 g of body weight of a suspension of the compound of the invention in 5% gum arabic is administered to male mice of the NMRI strain by the i.p. route. The control animals received only the 5% suspension of gum arabic. Changes in behaviour, neurotoxicity symptoms, the diameter of the pupil and the rectal temperature are recorded in the standardized observation schedule according to Irwin in Psychopharmacologia, 1968, 13, 222-257. These observations were made at 15, 30, 60, 120 and 180 minutes after injection and 24 hours later. The compounds of the invention were studied at doses of 1024, 512 and 256 mg.kg^-1.

[6] = tested on: TSH; assay: Effect on adenohypophyseal hormone secretions: TSH radioimmunoassay; type: in vivo, rat; conditions: male rats, plasma 30 min later; for activity on TSH levels: 32 mg/kg IP
Protocol: (§1) Male rats received 2 mg/kg, 8 mg/kg, or 32 mg/kg IP of product of example 1 in arabic gum (2.5%) and 32 mg/kg IP of products of examples 2 and 3. Rats were killed 30 min. later by decapitation and plasma samples were aliquoted and kept frozen (-20° C.) until assays. Before the experiments, the rats have been accustomed to handling to avoid any stress effect.
(§2) Hormones were assayed using radioimmunoassays for prolactin, GH and TSH.

[7] = Solubility of the product obtained; type: physicochemical
Description: The product obtained was insoluble in water and is soluble to the extent of at least 1% to 5% in organic solvents such as methanol. chloroform, ethyl acetate and dimethylformamide.

[8] = tested on: prolactin; assay: Effect on adenohypophyseal hormone secretions: prolactin radioimmunoassay; type: in vivo, rat; conditions: male rats, plasma 30 min later; for activity on prolactin levels: 32 mg/kg IP
Protocol: as §1, §2

[9] = tested on: GH; assay: Effect on adenohypophyseal hormone secretions: GH radioimmunoassay; type: in vivo, rat; conditions: male rats; 32 mg/kg IP; plasma 30 min later
Protocol: as §1, §2

[10] = i.p. 1024 mg.kg^-1, between 1 and 2 hours after administration

Compound | activity in the scopolamine amnesia test [1] | dose at which activity is significant / active dose, scopolamine amnesia test [1] [mg/kg] | dose with statistically significant effect / dose reducing diazepam amnesia [2] [mg/kg] | dose with significant/antagonistic effect on scopolamine amnesia [1] [mg/kg] | activity on TSH levels [6] | activity on GH levels [9] | activity on prolactin levels [8] | also measured
NC(=O)[C@@H]1CCCN1C(=O)[C@H](Cc1ccccc1)NC(=O)CNC(=O)c1ccccc1 [Example 6, benzoyl-glycyl-L-phenylalanyl-L-prolinamide] (Bz-Gly-Phe-Pro-NH2) | active | 2 |  |  |  |  |  | 
NC(=O)[C@@H]1CCCN1C(=O)[C@H](Cc1ccccc1)NC(=O)CNC(=O)C=Cc1ccccc1 [Example 1, cinnamoyl-glycyl-L-phenylalanyl-L-prolinamide] | active | 2 | 4 | 1 |  |  |  | antagonism of the effect of diazepam (Assay 2) ([2]; doses of 0.25, l and 4 mg.kg^-1, 60 minutes before Assay 1, diazepam 1 mg.kg^-1 i.p.): antagonizes the effect of diazepam in a dose-dependent manner; behavioural changes with L-dopa [3]: induces behavioural changes in the treated animals such as rapid running and jumping; antagonism of the effects of scopolamine (Assay 2) ([1]; i.p. 60 minutes before Assay 1, doses of 1, 4 and 16 mg/kg): antagonizes the effects of scopolamine; duration of sleep [4]: significantly diminishes the duration of sleep; Irwin observations versus control animals ([5]; i.p. 256 mg.kg^-1): no difference from the control animals; Irwin observations (hypothermia) ([5]; i.p. 512 mg.kg^-1): only a slight hypothermia; hypothermia ([5]; i.p. 1024 mg.kg^-1): hypothermia (2 mice/3); ptosis ([5]; i.p. 1024 mg.kg^-1): moderate ptosis (3 mice/3); excitation [5, 10]: excitation (1 mouse/3); sedation [5, 10]: slight sedation (1 mouse/3); TSH levels ([6]; 8 mg/kg IP): very slightly increased; solubility in water [7]: insoluble; prolactin levels ([8]; 2, 8 or 32 mg/kg IP, dose dependent): slightly increased
NC(=O)[C@@H]1CCCN1C(=O)[C@H](Cc1ccccc1)NC(=O)CNC(=O)Cc1ccccc1 [Example 7, phenylacetyl-glycyl-L-phenylalanyl-L-prolinamide] (PhAc-Gly-Phe-Pro-NH2) | active | 2 |  |  |  |  |  | 
NC(=O)[C@@H]1CCCN1C(=O)[C@H](Cc1ccccc1)NC(=O)CNC(=O)C=Cc1ccc2c(c1)OCO2 [Example 3, 3,4-methylenedioxycinnamoyl-glycyl-L-phenylalanyl-L-prolinamide] | active | 2 |  |  | no activity at all | no activity at all | no activity at all | 
4-fluorocinnamoylglycyl-L-phenylalanine-L-prolinamide [Example 2] | active | 2 |  |  | no activity at all | no activity at all | no activity at all | 
NC(=O)CN1CCCC1=O [piracetam, reference compound] |  | 2048 | 512 | 512 |  |  |  | latent periods for crossing into the dark compartment or for escaping from it during Assay 1 ([1]; i.p. or oral route 60 mn before the assay, Assay 1): does not produce any effect
